Legend:
Pseudomonas aeruginosa = assay: Antibiofilm activity in Pseudomonas aeruginosa assessed as inhibition of biofilm formation at 25 degC after 24 hrs; format: functional, organism-based
Salmonella typhimurium = assay: Antibiofilm activity in Salmonella Typhimurium ATCC 14028 assessed as inhibition of biofilm formation at 25 degC after 24 hrs; format: functional, organism-based, Salmonella enterica subsp. enterica serovar Typhimurium; details: Salmonella enterica, ATCC 14028, 24 h

| Structure (SMILES) | IC50 (Pseudomonas aeruginosa) | IC50 (Salmonella typhimurium) |
| --- | --- | --- |
| CCCCCCCCCCCCCCn1c(-c2ccc(-c3ccccc3)cc2)cnc1N | > 400 µM | > 800 µM |
| Cc1ccc(-c2cnc(N)n2C(C)C)cc1 | 240 µM | 203 µM |
| O=[N+]([O-])c1ccc(-c2cn3cccnc3[n+]2Cc2ccccc2)cc1.[O-][Cl+3]([O-])([O-])[O-] | > 800 µM | 170 µM |
| CC[n+]1c(-c2ccc([N+](=O)[O-])cc2)cn2cccnc21.[O-][Cl+3]([O-])([O-])[O-] | > 800 µM | > 800 µM |
| Cn1c(-c2ccccc2)cnc1N | 95.2 µM | 432 µM |
| Cn1c(-c2ccc(C#N)cc2)cnc1N | 331 µM | > 400 µM |
| Nc1ncc(-c2ccc(-c3ccccc3)cc2)n1C1CCCCCCCCCCC1 | > 800 µM | > 800 µM |
| Cn1c(-c2ccc([N+](=O)[O-])cc2)cnc1N | 69.8 µM | 162 µM |
| COc1ccc(Cn2c(-c3ccccc3)cnc2N)cc1OC | 159 µM | 156 µM |
| CCn1c(-c2ccc(F)cc2)cnc1N | 67.8 µM | 290 µM |
| N#Cc1ccc(-c2cnc(N)[nH]2)cc1 | – | 316 µM |
| COc1ccc(CCn2c(-c3ccccc3)cnc2N)cc1OC | 51.9 µM | 185 µM |
| CCCC[n+]1c(-c2ccc([N+](=O)[O-])cc2)cn2cccnc21.[O-][Cl+3]([O-])([O-])[O-] | > 800 µM | > 400 µM |
| C[n+]1c(-c2cccc([N+](=O)[O-])c2)cn2cccnc21.[O-][Cl+3]([O-])([O-])[O-] | > 800 µM | 427 µM |
| CCn1c(-c2ccc(Br)cc2)cnc1N | 60.5 µM | 126 µM |
| Cc1ccc(-c2nc(N)n(-c3ccccc3)c2-c2ccc(Cl)cc2)cc1 | > 800 µM | > 400 µM |
| O=[N+]([O-])c1ccc(-c2cn3cccnc3[n+]2C2CCCCC2)cc1.[O-][Cl+3]([O-])([O-])[O-] | 250 µM | 561 µM |
| Nc1ncc(-c2ccc(Cl)cc2)n1C1CCCCCCCCCCC1 | > 800 µM | 120 µM |
| CCn1c(-c2ccc([N+](=O)[O-])cc2)cnc1N | 126 µM | 286 µM |
| CC(C)C[n+]1c(-c2ccc([N+](=O)[O-])cc2)cn2cccnc21.[O-][Cl+3]([O-])([O-])[O-] | > 800 µM | 405 µM |
| CC(C)[n+]1c(-c2ccc([N+](=O)[O-])cc2)cn2cccnc21.[O-][Cl+3]([O-])([O-])[O-] | > 800 µM | > 800 µM |
| CS(=O)(=O)c1ccc(-c2cnc(N)[nH]2)cc1 | > 800 µM | > 800 µM |

The next molecules have a lower IC50 (Salmonella typhimurium) than those just listed; values first:

| IC50 (Pseudomonas aeruginosa) | IC50 (Salmonella typhimurium) | Structure (SMILES) |
| --- | --- | --- |
| 45.8 µM | 77.7 µM | Cc1ccc(-c2cnc(N)[nH]2)cc1 |
| > 800 µM | 116 µM | CCCCCCCCn1c(-c2ccc(-c3ccc([N+](=O)[O-])cc3)cc2)cnc1N |
| 104 µM | 97.3 µM | Nc1ncc(-c2ccccc2)n1Cc1ccc2c(c1)OCO2 |
| 112 µM | 108 µM | Cn1c(-c2ccc(Cl)cc2)cnc1N |
| 14.8 µM | 28.5 µM | Nc1ncc(-c2ccc(Cl)cc2)n1Cc1ccccc1 |
| 55.7 µM | 56.2 µM | CCCCn1c(-c2ccc(F)cc2)cnc1N |
| 18.7 µM | 16.2 µM | CCCCn1c(-c2ccc(Br)cc2)cnc1N |
| 73.9 µM | 9.2 µM | CCCCCn1c(-c2ccc(-c3ccccc3)cc2)cnc1N |
| 49.6 µM | 82 µM | CCCCCCCC[n+]1c(-c2ccc(S(C)(=O)=O)cc2)cn2cccnc21.[O-][Cl+3]([O-])([O-])[O-] |
| 57.8 µM | 74.2 µM | Nc1ncc(-c2ccc(Br)cc2)n1Cc1ccccc1 |
| 24.5 µM | 26.3 µM | Nc1ncc(-c2ccc(-c3ccccc3)cc2)n1C1CCC1 |
| 32 µM | 37.3 µM | Nc1ncc(-c2ccc(F)cc2)n1Cc1ccccc1 |
| – | 46.9 µM | Nc1nc(-c2ccccc2)c(-c2ccc(Cl)cc2)[nH]1 |
| – | 71.8 µM | Nc1nc(-c2ccc(Cl)cc2)c(-c2cc(F)cc(F)c2)[nH]1 |
| – | 77.1 µM | COc1ccc(-c2[nH]c(N)nc2-c2ccccc2)cc1 |
